These results are taken from ChEMBL document CHEMBL5214928, “DEAD-Box Helicase DDX3X as a Host Target against Emerging Viruses: New Insights for Medicinal Chemical Approaches” (J Med Chem, 2022).

Data set [1] is described as follows: Selectivity index, ratio of CC50 for hepatoma cells (unknown origin) to EC50 for HCV-1 infected in hepatoma cells (unknown origin). Format: toxicity, cell-based. The note with it: read-out: Ratio CC50/EC50.
Another data set concerns West Nile virus. Nature of the data set: Antiviral activity against WNV infected in human Huh-7 cells assessed as reduction in viral replication. Format: functional, organism-based.
Data set [2] is described as follows: Selectivity index, ratio of CC50 for human Huh-7 cells to EC50 for WNV infected in human Huh-7 cells. Format: toxicity, cell-based. The note with it: read-out: Ratio CC50/EC50.
Data set [3] can be described thus: Selectivity index, ratio of CC50 for human LucUbiNeo-ET cells to EC50 for HCV-1 infected in human LucUbiNeo-ET cells. The conditions noted are these: read-out: Ratio CC50/EC50. Format: toxicity, cell-based.
Data set [4] is described as follows: Selectivity index, ratio of CC50 for PBMC (unknown origin) to EC50 for HIV-1 NL4-3 infected in PBMC (unknown origin). The conditions noted are these: read-out: Ratio CC50/EC50. Format: toxicity.
Data set [5] concerns Human immunodeficiency virus 1. As to the kind of experiment: Antiviral activity against HIV-1 NL4-3 infected in PBMC (unknown origin) assessed as reduction in viral replication. Format: functional, organism-based. The note with it: Human immunodeficiency virus 1, NL4-3, PBMC.
In another data set the test system is Hepatitis C virus. As to the kind of experiment: Antiviral activity against HCV-1 infected in human LucUbiNeo-ET cells assessed as reduction in viral replication incubated for 2 days by luminometry. The note with it: genotype 1, LucUbiNeo-ET, 48 h. In kind it is functional, organism-based, Hepacivirus hominis.
The nature of data set [6]: Cytotoxicity against human LucUbiNeo-ET cells assessed as reduction in cell viability by MTT assay. In kind it is functional. Background: Tetrazolium assays rely on reduction of a dye to a coloured formazan, in cell work by metabolically active cells.
Data set [7] in a line: Half life in rat administered intravenously. The note with it: in vivo, route iv. Format: ADME.
In data set [8] the test system is Japanese encephalitis virus. As to the kind of experiment: Antiviral activity against JEV SA14-14-2 infected in hamster BHK-21 cells assessed as reduction in viral replication by plaque formation assay. The note with it: SA14-14-2, BHK-21. In kind it is functional, organism-based.
A short description of data set [9]: Cytotoxicity against hamster BHK-21 cells assessed as reduction in cell viability at MOI of 0.01 incubated for 48 hrs by plaque formation assay. Format: toxicity, cell-based, Mesocricetus auratus.
Data set [10] is described as follows: Selectivity index, ratio of CC50 for human Huh-7 cells to EC50 for DENV-2 New Guinea C infected in human Huh-7 cells. In kind it is toxicity, cell-based. The conditions noted are these: read-out: Ratio CC50/EC50.
The test system of the next data set is dengue virus type 2. As to the kind of experiment: Antiviral activity against DENV-2 New Guinea C infected in human Huh-7 cells assessed as reduction in viral replication. In kind it is functional, organism-based.
The nature of data set [11]: Selectivity index, ratio of CC50 for hamster BHK-21 cells to EC50 for JEV SA14-14-2 infected in hamster BHK-21 cells. In kind it is toxicity, cell-based. The note with it: read-out: Ratio CC50/EC50.
Data set [12] in a line: Cytotoxicity against PBMC (unknown origin) assessed as reduction in cell viability. Format: toxicity, cell-based.

The structures appear in SMILES notation.

Broadly, the EC50 is the concentration needed to bring the measured effect to its halfway point. For orientation: CC50 means the concentration giving 50% cytotoxicity. One may read the half-life as the time needed for the level to fall by half in the phase considered. On to `CCCCc1cn(-c2ccc(NC(=O)Nc3ccccc3C)cc2)nn1`, for which the selectivity ratio is above 200 in data set [1]; above 12 in data set [2]; 51 in data set [3]; 91 in data set [4]; 78 in [10]; above 2.5 in data set [11]. The EC50 with West Nile virus worked out at 16.5 µM; in [5] it was 1.1 µM; with Hepatitis C virus it was 0.97 µM; in data set [8], 20 µM; in the data set with dengue virus type 2 it was 2.55 µM. Further, the figures for the CC50 in data set [6] and in [12] were 49.8 µM and above 100 µM, respectively. Further, the half-life in [7] was 3 h. Moreover, the CC50 at 48 h in data set [9] is above 50 µM.
